Reference: patent US20230131966A1, “FUNGICIDAL AMIDES” (FMC Corporation, priority 2020, published 2023)

Experiments:
Format in all cases: in vivo
Zymoseptoria tritici = test: Test C: wheat leaf blotch control on wheat seedlings; details: wheat seedlings, 100 = 100% disease control, 0 = no control
Phakopsora pachyrhizi = test: Test A: Asian soybean rust control on soybean seedlings; details: soybean seedlings, 100 = 100% disease control, 0 = no control
[1] = tested on: Puccinia recondita f. sp. tritici; test: Test B: wheat leaf rust control on wheat seedlings; details: wheat seedlings, 100 = 100% disease control, 0 = no control
Botrytis cinerea = test: Test E: tomato Botrytis control on tomato seedlings; details: 100 = 100% disease control, 0 = no control
Phytophthora infestans = test: whole plant or invertebrate; details: tomato seedlings, 100 = 100% disease control, 0 = no control
[2] = tested on: Erysiphe graminis f. sp. tritici; test: Test G: wheat powdery mildew control on wheat seedlings; details: 100 = 100% disease control, 0 = no control
Plasmopara viticola = test: Test D: grape downy mildew control on grape seedlings; details: 100 = 100% disease control, 0 = no control

SMILES | Test C disease control rating (Zymoseptoria tritici; 250 ppm) | Test A disease control rating (Phakopsora pachyrhizi; 250 ppm) | Test B disease control rating ([1]; 250 ppm) | Test E disease control rating (Botrytis cinerea; 250 ppm) | Test F disease control rating (Phytophthora infestans; 250 ppm) | Test G disease control rating ([2]; 250 ppm) | Test D disease control rating (Plasmopara viticola; 250 ppm) | Test C disease control rating (Zymoseptoria tritici; 50 ppm) | Test A disease control rating (Phakopsora pachyrhizi; 50 ppm) | Test B disease control rating ([1]; 50 ppm) | Test E disease control rating (Botrytis cinerea; 50 ppm) | Test F disease control rating (Phytophthora infestans; 50 ppm) | Test G disease control rating ([2]; 50 ppm) | Test D disease control rating (Plasmopara viticola; 50 ppm)
COc1ccnc(C(=O)NC(C)C(=O)OC(C)c2ccc([N+](=O)[O-])cc2)c1OC(C)=O (mixture of isomers) [Compound 20] | 64% | 0% | 68% | 0% | 0% | 0% | 4% |  |  |  |  |  |  | 
COc1ccnc(C(=O)NC(C)C(=O)OC(C)c2ccccc2-n2ccc(C(F)(F)F)n2)c1OC(C)=O (mixture of isomers) [Compound 25] | 17% | 97% | 0% | 0% | 0% | 0% | 41% |  |  |  |  |  |  | 
COc1ccnc(C(=O)NC(C)C(=O)OC(C)c2ccccc2-n2ccc(C(F)(F)F)n2)c1O (mixture of isomers) [Compound 26] | 47% | 73% | 0% | 0% | 0% | 0% | 43% |  |  |  |  |  |  | 
COc1ccnc(C(=O)NC(C)C(=O)OC(C)c2cccc(-n3ccc(C(F)(F)F)n3)c2)c1OC(C)=O (mixture of isomers) [Compound 27] | 81% | 98% | 99% | 0% | 0% | 0% | 38% |  |  |  |  |  |  | 
COc1ccnc(C(=O)NC(C)C(=O)OC(C)c2cccc(-n3ccc(C(F)(F)F)n3)c2)c1O (mixture of isomers) [Compound 28] | 90% | 99% | 74% | 0% | 0% | 0% | 40% |  |  |  |  |  |  | 
COc1ccnc(C(=O)NC(C)C(=O)OC(C)c2ccc(C#N)cc2)c1OC(C)=O (mixture of isomers) [Compound 33] | 87% | 13% | 0% | 0% | 0% | 0% | 66% |  |  |  |  |  |  | 
COc1ccnc(C(=O)NC(C)C(=O)OC(C)c2ccc(C#N)cc2)c1O (mixture of isomers) [Compound 34] | 13% | 0% | 0% | 0% | 0% | 0% | 58% |  |  |  |  |  |  | 
COc1ccnc(C(=O)NC(C)C(=O)OC(C)c2ccc(C(F)(F)F)cc2)c1OC(C)=O (mixture of isomers) [Compound 35] | 80% | 100% | 100% | 0% | 0% | 0% | 68% |  |  |  |  |  |  | 
COc1ccnc(C(=O)NC(C)C(=O)OC(C)c2ccc(C(F)(F)F)cc2)c1O (mixture of isomers) [Compound 36] | 81% | 100% | 99% | 0% | 0% | 0% | 72% |  |  |  |  |  |  | 
COc1ccnc(C(=O)NC(C)C(=O)OC(C)C23CC4CC(CC(C4)C2)C3)c1OC(C)=O (mixture of isomers) [Compound 43] | 90% | 100% | 100% | 0% | 0% | 0% | 71% |  |  |  |  |  |  | 
CCOC(=O)c1cnn(-c2ccc(C(C)OC(=O)C(C)NC(=O)c3nccc(OC)c3OC(C)=O)cc2)c1 (mixture of isomers) [Compound 47] | 51% | 99% | 68% | 0% | 0% | 0% | 20% |  |  |  |  |  |  | 
CCOC(=O)c1ccn(-c2ccc(C(C)OC(=O)C(C)NC(=O)c3nccc(OC)c3OC(C)=O)cc2)n1 (mixture of isomers) [Compound 48] | 8% | 55% | 55% | 0% | 0% | 0% | 4% |  |  |  |  |  |  | 
CCOC(=O)c1ccn(-c2ccc(C(C)OC(=O)C(C)NC(=O)c3nccc(OC)c3O)cc2)n1 (mixture of isomers) [Compound 49] | 0% | 97% | 41% | 0% | 0% | 0% | 17% |  |  |  |  |  |  | 
COc1ccnc(C(=O)NC(C)C(=O)OC(C)c2ccc(OC3CCCCC3)cc2)c1O (mixture of isomers) [Compound 53] | 22% | 56% | 55% | 0% | 0% | 0% | 22% |  |  |  |  |  |  | 
COc1ccnc(C(=O)NC(C)C(=O)OC(C)c2ccccc2Oc2ccc(F)cc2)c1OC(C)=O (mixture of isomers) [Compound 61] | 0% | 0% | 55% | 0% | 0% | 0% | 15% |  |  |  |  |  |  | 
COc1ccnc(C(=O)NC(C)C(=O)OC(C(C)C)C2CCCCC2)c1O (mixture of isomers) [Compound 63] | 79% | 100% | 99% | 16% | 0% | 0% | 81% |  |  |  |  |  |  | 
COc1ccnc(C(=O)NC(C)C(=O)OC(C)c2ccc(C3CCCC3)cc2)c1OC(C)=O (mixture of isomers) [Compound 64] |  |  |  |  |  |  |  | 13% | 100% | 99% | 0% | 0% | 0% | 86%
COc1ccnc(C(=O)NC(C)C(=O)OC(C)c2ccc(Br)s2)c1OC(C)=O (mixture of isomers) [Compound 67] | 36% | 13% | 55% | 0% | 0% | 0% | 53% |  |  |  |  |  |  | 
CCCCCCc1ccc(C(C)OC(=O)C(C)NC(=O)c2nccc(OC)c2O)cc1 (mixture of isomers) [Compound 68] | 97% | 100% | 95% | 0% | 40% | 0% | 46% |  |  |  |  |  |  | 
COc1ccnc(C(=O)NC(C)C(=O)OC(C)c2ccc(C#C[Si](C)(C)C)cc2)c1O (mixture of isomers) [Compound 69] | 94% | 100% | 100% | 0% | 9% | 0% | 50% |  |  |  |  |  |  | 
COc1ccnc(C(=O)NC(C(=O)OC(C)c2ccc(C3CCCCC3)cc2)C(C)C)c1O (mixture of isomers) [Compound 70] | 97% | 100% | 100% | 0% | 24% | 13% | 63% |  |  |  |  |  |  | 
CCC(OC(=O)C(C)NC(=O)c1nccc(OC)c1O)c1ccc(C2CCCCC2)cc1 (mixture of isomers) [Compound 72] | 27% | 100% | 92% | 0% | 0% | 35% | 62% |  |  |  |  |  |  | 
COc1ccnc(C(=O)NC(C)C(=O)OC(C)c2ccc3ccccc3c2)c1OC(C)=O (mixture of isomers) [Compound 75] | 100% | 100% | 100% | 0% | 0% | 0% | 61% |  |  |  |  |  |  | 
